# Measured values taken from patent US8901307B2, “Chemical compounds 251” (AstraZeneca AB, priority 2008, dated 2014).
# Where a name gives a salt, the structure may show the parent alone.
# Columns and labels:
# [1] = molecular target: T1, human His-PIM1 [2-313] (Homo sapiens, UniProt P11309); test: PIM1 in-vitro mobility shift assay (Caliper LC3000, FL-Ahx-Bad phosphorylation); format: biochemical; conditions: 1.5 h; percent inhibition at 0.3 uM compound; read-out: PIM1 % I at 0.3 uM
# T1 construct: purified human His-PIM1 [2-313] enzyme; His (N); purchased University of Dundee, Scotland; host or cells: baculovirus system
# T1 sequence (P11309 2-313): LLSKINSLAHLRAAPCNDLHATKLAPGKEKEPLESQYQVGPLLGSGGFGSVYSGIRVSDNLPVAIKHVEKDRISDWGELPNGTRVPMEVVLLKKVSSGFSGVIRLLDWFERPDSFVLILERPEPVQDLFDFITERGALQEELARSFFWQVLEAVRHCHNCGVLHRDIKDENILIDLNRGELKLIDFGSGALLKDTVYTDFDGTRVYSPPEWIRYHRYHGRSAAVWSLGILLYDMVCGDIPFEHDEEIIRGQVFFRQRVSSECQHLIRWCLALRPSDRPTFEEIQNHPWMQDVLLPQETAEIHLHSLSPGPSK
# Procedure, shortened: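 Compound preincubated 20 min at 25 °C with 2.4 nM PIM1, 3.6 µM FL-Ahx-Bad peptide and 240 µM ATP (1.2× mix concentrations). Reaction started with 24 mM MgCl2 mix, run 90 min at 25 °C, EDTA-stopped. Phospho/unphospho peptide separated by microfluidic mobility shift; percent inhibition from ratiometric turnover.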
# [2] = molecular target: T2, human His-PIM2 [23-299] (Homo sapiens, UniProt Q9P1W9); test: PIM2 in-vitro mobility shift assay (Caliper LC3000, FL-Ahx-Bad phosphorylation); format: biochemical; conditions: 1.5 h; percent inhibition at 0.3 uM compound; read-out: PIM2 % I at 0.3 uM
# T2 construct: purified human His-PIM2 [23-299] enzyme; His (N); host or cells: E. coli
# T2 sequence (Q9P1W9 23-299): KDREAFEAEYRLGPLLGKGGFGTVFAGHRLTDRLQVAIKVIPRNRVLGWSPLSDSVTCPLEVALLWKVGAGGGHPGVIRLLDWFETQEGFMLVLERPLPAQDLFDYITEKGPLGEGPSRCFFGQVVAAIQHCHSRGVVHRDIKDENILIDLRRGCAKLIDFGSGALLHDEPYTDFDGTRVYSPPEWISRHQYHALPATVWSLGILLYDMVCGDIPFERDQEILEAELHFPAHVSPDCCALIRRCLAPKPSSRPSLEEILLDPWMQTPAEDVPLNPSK
Compound,inhibition at 0.3 µM [1] [%],inhibition at 0.3 µM [2] [%]
"O=C1NC(=O)/C(=C/c2ccccc2N2CCNCC2)S1 [Example 115, (5Z)-5-(2-piperazin-1-ylbenzylidene)-1,3-thiazolidine-2,4-dione hydrochloride]",93.3,76.1
"O=C1NC(=O)/C(=C/c2cccc(Cl)c2N2CCCNCC2)S1 [Example 122N, (Z)-5-(3-chloro-2-(1,4-diazepan-1-yl)benzylidene)thiazolidine-2,4-dione hydrochloride]",> 95,> 95
"N[C@@H]1CCCN(c2c(/C=C3\SC(=O)NC3=O)cccc2-c2ccccc2)C1 [Example 122AI, (R,Z)-5-((2-(3-aminopiperidin-1-yl)biphenyl-3-yl)methylene)thiaozlidine-2,4-dione]",> 95,> 95
"N[C@H]1CCN(c2c(Br)cccc2/C=C2\SC(=O)NC2=O)C1 [Example 122H, (S,Z)-5-(2-(3-aminopyrrolidin-1-yl)-3-bromobenzylidene)thiazolidine-2,4-dione hydrochloride]",> 95,> 95
"O=C1NC(=O)/C(=C/c2ccccc2OCCO)S1 [Example 60, (Z)-5-(2-(2-hydroxyethoxy)benzylidene)thiazolidine-2,4-dione]",35.4,11.3
CN(C)CC(=O)N[C@H]1CCN(c2c(Cl)cccc2/C=C2\SC(=O)NC2=O)C1 [Example 145],> 95,80.1
CC(C)CN1CCN(c2c(Cl)cc(C(F)(F)F)cc2/C=C2\SC(=O)NC2=O)CC1 [Example 12],80.2,< 5
O=C1NC(=O)/C(=C/c2cc(C(F)(F)F)cc(Cl)c2N2CCC(N3CCCCC3)CC2)S1 [Example 31],92.8,23.3
"CN(C)[C@H]1CCN(c2ccc(Cl)cc2C=C2SC(=O)NC2=O)C1 [Example 84I, (S)-5-(5-chloro-2-(3-(dimethylamino)pyrrolidin-1-yl)benzylidene)thiazolidine-2,4-dione]",> 95,82.7
O=C1NC(=O)/C(=C/c2cc(C(F)(F)F)cc(Cl)c2N2CCN(Cc3ccccc3Cl)CC2)S1 [Example 18],< 5,< 5
NCCC(=O)N1CCN(c2ccccc2/C=C2\SC(=O)NC2=O)CC1 [Example 129A],> 95,> 95
"O=C1NC(=O)/C(=C/c2ccncc2)S1 [Example 72, (Z)-5-(pyridin-4-ylmethylene)thiazolidine-2,4-dione]",< 5,< 5
CN1CCN(c2c(Cl)cc(C(F)(F)F)cc2/C=C2\SC(=O)NC2=O)CC1 [Example 32],94,31.9
"O=C1NC(=O)/C(=C/c2ccccc2N2CCN(C(=O)c3ccc(CN4CCNCC4)cc3)CC2)S1 [Example 109, (Z)-5-(2-(4-(4-(piperazin-1-ylmethyl)benzoyl)piperazin-1-yl)benzylidene)thiazolidine-2,4-dione hydrochloride]",64.2,65.8
"CNCCN1CCN(c2ccccc2/C=C2\SC(=O)NC2=O)CC1 [Example 114, (Z)-5-(2-(4-(2-(methylamino)ethyl)piperazin-1-yl)benzylidene)thiazolidine-2,4-dione hydrochloride]",> 95,> 95
"N[C@@H]1CCCN(c2c(/C=C3\SC(=O)NC3=O)cccc2OCC(F)(F)F)C1 [Example 122Y, (R,Z)-5-(2-(3-aminopiperidin-1-yl)-3-(2,2,2-trifluoroethoxy)benzylidene)thiazolidine-2,4-dione hydrochloride]",> 95,> 95
CC(=O)NCC(=O)N[C@H]1CCN(c2c(Cl)cccc2/C=C2\SC(=O)NC2=O)C1 [Example 147],74.3,36.4
"NC[C@@H]1CCN(c2c(Cl)cccc2/C=C2\SC(=O)NC2=O)C1 [Example 122C, (S,Z)-5-(2-(3-(aminomethyl)pyrrolidin-1-yl)-3-chlorobenzylidene)thiazolidine-2,4-dione]",> 95,> 95
"CN(C)[C@H]1CCN(c2c(F)cccc2C=C2SC(=O)NC2=O)C1 [Example 84N, (S)-5-(2-(3-(dimethylamino)pyrrolidin-1-yl)-3-fluorobenzylidene)thiazolidine-2,4-dione]",92.8,81.4
"CN(C)C1CCN(c2ccccc2/C=C2\SC(=O)NC2=O)CC1 [Example 49, (5Z)-5-{2-[4-(dimethylamino)piperidin-1-yl]benzylidene}-1,3-thiazolidine-2,4-dione]",> 95,86.3
"COc1cc(/C=C2\SC(=O)NC2=O)c(N2CCC(O)C2)cc1OC (stereo not shown) [Example 45, (5Z)-5-[2-(3-hydroxypyrrolidin-1-yl)-4,5-dimethoxybenzylidene]-1,3-thiazolidine-2,4-dione]",40.1,14.3

Compound,inhibition at 0.3 µM [1] [%],inhibition at 0.3 µM [2] [%]
O=C1NC(=O)/C(=C/c2cc(C(F)(F)F)cc(Cl)c2N2CCN(c3ccc(F)cc3)CC2)S1 [Example 7],5.4,< 5
COc1cc(/C=C2\SC(=O)NC2=O)c(N2CCC(NCCCN)C2)cc1OC (stereo not shown) [Example 126],> 95,> 95
"COc1cc(/C=C2\SC(=O)NC2=O)c(N2CCCC2)cc1OC [Example 46, (5Z)-5-(4,5-dimethoxy-2-pyrrolidin-1-ylbenzylidene)-1,3-thiazolidine-2,4-dione]",13.4,15.7
N[C@H]1CCN(c2c(Cl)cc(C(F)(F)F)cc2/C=C2\SC(=O)NC2=O)C1 [Example 5B],> 95,> 95
"O=C1NC(=O)/C(=C/c2ccccc2N2CCCN(C(=O)C3CCCNC3)CC2)S1 (stereo not shown) [Example 102, (Z)-5-(2-(4-(piperidine-3-carbonyl)-1,4-diazepan-1-yl)benzylidene)thiazolidine-2,4-dione hydrochloride]",93.3,91.9
"CCN(CC)CCOc1ccc(OC)cc1/C=C1\SC(=O)NC1=O [Example 63, (Z)-5-(2-(2-(diethylamino)ethoxy)-5-methoxybenzylidene)thiazolidine-2,4-dione]",79.2,21.5
CC(C)N1CCN(c2c(Cl)cc(C(F)(F)F)cc2/C=C2\SC(=O)NC2=O)CC1 [Example 11],89.4,17.9
"O=C1NC(=O)/C(=C/c2ccccc2N2CCN(C(=O)C3CNC3)CC2)S1 [Example 117, (5Z)-5-{2-[4-(azetidin-3-ylcarbonyl)piperazin-1-yl]benzylidene}-1,3-thiazolidine-2,4-dione hydrochloride]",> 95,> 95
"CN(C)[C@H]1CCN(c2cccc(Cl)c2C=C2SC(=O)NC2=O)C1 [Example 84O, (S)-5-(2-chloro-6-(3-(dimethylamino)pyrrolidin-1-yl)benzylidene)thiazolidine-2,4-dione]",< 5,< 5
NCC1CCCN(c2c(Cl)cc(C(F)(F)F)cc2/C=C2\SC(=O)NC2=O)C1 (stereo not shown) [Example 4],> 95,79.6
O=C1NC(=O)/C(=C/c2cc(C(F)(F)F)cc(Cl)c2N2CCC(N3CCCC3)CC2)S1 [Example 10],> 95,50.1
"COc1cc(/C=C2\SC(=O)NC2=O)c(N2CC[C@H](N(C)C)C2)cc1OC [Example 40, (S,Z)-5-(2-(3-(dimethylamino)pyrrolidin-1-yl)-4,5-dimethoxybenzylidene)thiazolidine-2,4-dione]",> 95,89.8
"CCOc1cccc(/C=C2\SC(=O)NC2=O)c1N1CC[C@H](N)C1 [Example 122Q, (S,Z)-5-(2-(3-aminopyrrolidin-1-yl)-3-ethoxybenzylidene)thiazolidine-2,4-dione hydrochloride]",> 95,> 95
"NCCCCC(=O)N1CCCN(c2ccccc2/C=C2\SC(=O)NC2=O)CC1 [Example 103, (Z)-5-(2-(4-(5-aminopentanoyl)-1,4-diazepan-1-yl)benzylidene)thiazolidine-2,4-dione hydrochloride]",> 95,88.7
COc1ccc(OCCCNC(C)C)c(C=C2SC(=O)NC2=O)c1 [Example 150],79.8,31.7
"COCCOc1cccc(/C=C2\SC(=O)NC2=O)c1N1CCC[C@@H](N)C1 [Example 122AA, (R,Z)-5-(2-(3-aminopiperidin-1-yl)-3-(2-methoxyethoxy)benzylidene)thiazolidine-2,4-dione hydrochloride]",> 95,> 95
CN(C)[C@H]1CCN(c2c(Cl)cc(C(F)(F)F)cc2/C=C2\SC(=O)NC2=O)C1 [Example 14],> 95,69.9
CN(C)CCCN(C)c1c(Cl)cc(C(F)(F)F)cc1/C=C1\SC(=O)NC1=O [Example 25],> 95,68.4
"COc1cccc(/C=C2\SC(=O)NC2=O)c1N1CCNCC1 [Example 97, (Z)-5-(3-methoxy-2-(piperazin-1-yl)benzylidene)thiazolidine-2,4-dione hydrochloride]",> 95,86.4
O=C1NC(=O)/C(=C/c2cc(C(F)(F)F)cc(Cl)c2N2CCC(N3CCOCC3)CC2)S1 [Example 22],81.9,8.5
